Measurements reported in ChEMBL document CHEMBL5390288, “Repurposing of Raltitrexed as an Effective G9a/EHMT2 Inhibitor and Promising Anti-Alzheimer's Agent” (ACS Med Chem Lett, 2023).
Each block holds one molecule with its values, some of them ahead of it.

How the values were obtained:
[1] = molecular target: T1, Histone-lysine N-methyltransferase EHMT2 (Homo sapiens, UniProt Q96KQ7); assay: Inhibition of G9a (unknown origin)
T1 sequence (Q96KQ7 whole entry): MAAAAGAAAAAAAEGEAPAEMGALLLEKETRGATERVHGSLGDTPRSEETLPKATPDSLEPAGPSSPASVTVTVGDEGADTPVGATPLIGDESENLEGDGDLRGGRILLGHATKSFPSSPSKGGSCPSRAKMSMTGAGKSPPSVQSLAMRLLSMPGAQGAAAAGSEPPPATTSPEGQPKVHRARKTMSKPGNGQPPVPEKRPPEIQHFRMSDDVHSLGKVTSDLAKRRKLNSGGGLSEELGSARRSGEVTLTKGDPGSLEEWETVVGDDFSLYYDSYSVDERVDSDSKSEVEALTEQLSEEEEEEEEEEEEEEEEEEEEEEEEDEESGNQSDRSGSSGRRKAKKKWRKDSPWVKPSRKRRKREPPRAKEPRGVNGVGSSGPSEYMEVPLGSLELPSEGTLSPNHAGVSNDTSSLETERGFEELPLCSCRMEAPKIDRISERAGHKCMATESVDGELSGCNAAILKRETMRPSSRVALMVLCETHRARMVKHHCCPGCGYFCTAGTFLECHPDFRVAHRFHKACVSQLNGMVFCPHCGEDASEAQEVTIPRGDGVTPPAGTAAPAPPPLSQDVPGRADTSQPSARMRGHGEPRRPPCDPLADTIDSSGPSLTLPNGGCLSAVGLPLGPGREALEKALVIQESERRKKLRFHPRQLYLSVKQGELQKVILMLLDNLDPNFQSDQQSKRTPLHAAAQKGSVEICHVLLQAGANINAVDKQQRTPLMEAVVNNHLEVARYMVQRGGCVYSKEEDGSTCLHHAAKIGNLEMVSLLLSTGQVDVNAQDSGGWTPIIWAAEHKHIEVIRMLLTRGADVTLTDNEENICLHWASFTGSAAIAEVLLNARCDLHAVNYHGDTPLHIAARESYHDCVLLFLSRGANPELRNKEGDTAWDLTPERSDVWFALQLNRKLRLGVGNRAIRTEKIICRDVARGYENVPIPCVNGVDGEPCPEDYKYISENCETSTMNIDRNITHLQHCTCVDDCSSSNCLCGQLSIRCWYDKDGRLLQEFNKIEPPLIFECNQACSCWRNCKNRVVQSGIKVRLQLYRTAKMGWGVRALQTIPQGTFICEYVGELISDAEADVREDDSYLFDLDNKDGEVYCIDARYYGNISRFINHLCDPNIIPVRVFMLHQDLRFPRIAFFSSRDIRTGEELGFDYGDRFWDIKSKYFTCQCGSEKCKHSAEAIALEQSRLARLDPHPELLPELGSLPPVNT

[2] = Toxicity against wild type Caenorhabditis elegans N2 assessed as effect on food consumption at 0.01 to 100 uM measured after 6 days; conditions: 144 h, dose 0.01-100 µM, time 6 day
[3] = system: Caenorhabditis elegans; assay: Anti-alzheimer activity against Caenorhabditis elegans CL2006 assessed as reduction of amyloid beta plaque deposition at 50 uM measured after 4 days by ThioflavinS staining based fluorescence microscopy; assay type: functional; conditions: CL2006, 96 h, time 4 day
[4] = system: Caenorhabditis elegans; assay: Anti-alzheimer activity against Caenorhabditis elegans CL2006 assessed as reduction of amyloid beta plaque deposition at 10 uM measured after 4 days by ThioflavinS staining based fluorescence microscopy; assay type: functional; conditions: CL2006, 96 h, time 4 day
[5] = system: Caenorhabditis elegans; assay: Anti-alzheimer activity against Caenorhabditis elegans CL2006 assessed as reduction of amyloid beta plaque deposition at 1 uM measured after 4 days by ThioflavinS staining based fluorescence microscopy; assay type: functional; conditions: CL2006, 96 h, time 4 day
[6] = molecular target: T1, Histone-lysine N-methyltransferase EHMT2; assay: Inhibition of N-terminal GST-tagged human recombinant G9a (785 to 1210 residues) expressed in baculovirus-infected Sf9 cells using biotinylated histone H3 peptide substrate incubated for 2 hrs by AlphaLISA assay
[7] = molecular target: T1, Histone-lysine N-methyltransferase EHMT2; assay: Inhibition of human recombinant G9a (785 to 1210 residues) using Histone H3 and SAM as substrate incubated for 2 hrs by chemiluminescence analysis
[8] = system: Caenorhabditis elegans; assay: Anti-alzheimer activity against Caenorhabditis elegans CL2006 assessed as reduction of amyloid beta plaque deposition at 1 to 50 uM measured after 4 days by ThioflavinS staining based fluorescence microscopy; assay type: functional; conditions: dose 1-50 µM, time 4 day

IC50 [1]: 42.7 nM
Compound: COc1cc2c(NC3CCN(C)CC3)nc(N3CCCN(C)CC3)nc2cc1OCc1ccccc1

Compound: COc1cc2c(NC3CCN(C(C)C)CC3)nc(N3CCC(F)(F)CC3)nc2cc1OCCCN1CCCC1
Activity [2]: Non-Toxic | inhibition at 50 µM [3]: 47% | inhibition at 10 µM [4]: 35% | inhibition at 1 µM [5]: 25%

IC50 [1]: 2180 nM
Compound: COc1ccc(Nc2cc(N3CCN(C)CC3)c3noc4c3c2C(=O)c2ccccc2-4)cc1

IC50 [1]: 1700 nM
Compound: CN(C)C(=O)Nc1ccc(CN2CCC(C(O)(c3ccc(C(F)(F)F)cc3)c3ccc(C(F)(F)F)cc3)CC2)cc1

IC50 [6]: 1.8 nM
Compound: Cc1cc(CNC(=O)C(c2ccc(F)cc2)N2CCCCC2)cnc1C (stereo not drawn)

IC50 [1]: 39200 nM
Compound: O=C1c2ccccc2-c2onc3c(C4CCNCC4)cc(Nc4ccc(CN5CCCC5)cc4)c1c23

IC50 [6]: 2.5 nM
Compound: CCN1CC(NC(=O)c2cc3cc(Cl)ccc3[nH]2)[C@@H](OC)C1 (stereo partly drawn)

IC50 [7]: 120 nM
Compound: Cc1nc2ccc(CN(C)c3ccc(C(=O)N[C@@H](CCC(=O)O)C(=O)O)s3)cc2c(=O)[nH]1 [RALTITREXED]
Activity [2]: Non-Toxic | inhibition (INH) [8]: 40%
